Here are results for four compounds from patent US20220264878A1, “HERBICIDAL COMPOSITION CONTAINING R-TYPE PYRIDYLOXY CARBOXYLIC ACID DERIVATIVE AND USE THEREOF” (Qingdao Kingagroot Chemical Compound Co., Ltd., priority 2019, published 2022).

What all share (format): in vivo
In one test the test system is Eleusine indica. As to the kind of experiment: Post-emergence foliage spray, pot culture, fresh weight inhibition (Tables 1-48, 51-98, 101-148; 24 days). To be noted: Table 79. An excerpt:
(§1) Table 1-48, 51-98, 101-148: Echinochloa crusgalli var. zelayensis, Eclipta prostrate, Galium aparine L., Alopecurus aequalis, Alopecurus japonicus, Lindernia procumbens, Veronica persica^1, Malachium aquaticum, Beckmannia syzigachne, Stellaria media were collected in Huai'an of Jiangsu Province; Commelina communis, Sonchus arvensis, Setaria glauca, Chloris virgata, Setaria faberi, Sonchus oleraceus L., Echinochloa oryzoides, Cirsium setosum, Xanthium strumarium were collected in Qiqiha'er of Heilongjiang Province; Sinapis arvensis, Veronica persica^2 were collected in Zhumadian of Henan Province; Ludwigia prostrate, Ammannia arenaria were collected in Zhuji of Zhejiang Province; Amaranthus retrojlexus, Descurainia sophia, Digitaria sanguinalis, Setaria viridis, Conyza Canadensis, Capsella bursa-pastoris, Eleusine indica, Ipomoea purpurea, Abutilon theophrasti, Chenopodium album, Acalypha australis, Solanum nigrum were collected in Qingdao of Shandong Province; Echinochloa caudate were collected in Pingluo of Ningxia Province.
(§2) The above weeds were cultivated by a pot culture method. […] Full and uniform weed seeds were selected, soaked in warm water at 25° C. for 6 hours, and germinated in a 28° C. biochemical incubator (darkness). The weed seeds that had just germinatedwere evenly placed on the surface of the soil and then covered with 0.5-1 cm soil according to the sizes of seeds.
(§3) The culture was carried out in a controllable sunlight greenhouse at 20 to 30° C., in natural light, and relative humidity of 57% to 72%.
(§4) The technical materials were all dissolved in acetone, and diluted with an aqueous solution containing 0.1% emulsifier Tween-80. The dilution is performed as required.
(§5) A ratio of the active ingredient A to the active ingredient B and amounts thereof in each group depends on the characteristics and toxicity of the two agents, as well as the main application purpose of a corresponding formulation. Based on the pre-tests in this study, the dosage of the active ingredient A and B applied alone and in combination were shown in the tables. Water containing the solvent and emulsifier same with the above groups but free of the agents was used as a blank control.
(§6) Table 1-48, 51-98, 101-148, 151-206: […] per treatment, that is, a total of 60 weeds were treated in one treatment.
(§7) Table 1-48, 51-98, 101-148: The agents were used for only once in the experiment. In the stage of weeds with 3˜4 leaves, the weeds were thinned out to maintain 15 weeds per pot and 45 weeds for each treatment, then continued to be cultured to 5˜6 leaves stage of grassy weeds, 6˜7 leaves stage of broadleaf weeds, and treated.
(§8) The well-cultured weeds were evenly placed on a platform with an area of 0.5 m^2, and a solution of agents was sprayed on the stems and leaves thereof by the 3WP-2000-type walking spray tower at a dosage of 450 kg/ha and at a spray pressure of 0.3 MPa. After all the solution was sprayed, the valve was closed. After 30 seconds, the door of the spray tower was opened, and the nutritional bowl was taken out. Then the valve was opened, and the spray tube was cleaned by spraying 50 ml of water.
(§9) A pot-culture method was employed. For the cultivation of weeds, please refer to the Section 1.1), and “Pesticide guidelines for laboratory bioactivity tests—herbicides”. As to a method for applying agents, please refer to the section 2.3.2), that is, a foliage treatment was employed. After the treatment, the weeds were routinely cultured in a greenhouse.
(§10) A method for investigating absolute number was employed, wherein whole seedlings of survival weeds were cut off with a blade along the soil surface, and the fresh weight of the weeds was weighed with an analytical balance. For dead weeds, the fresh weight thereof was zero.
(§11) Table 1-48, 51-98, 101-148, 207-216: The investigation was performed after 24 days of the treatment for only once.

For a further test, the system named is Chloris virgata. The description is as above.
Source text: as §1, §2, §3, §4, §5, §6, §7, §8, §9, §10, §11

The next test deals with Conyza Canadensis. As to the kind of experiment: Post-emergence foliage spray on Conyza Canadensis with a height of 10 cm, fresh weight inhibition (Tables 207-216; 24 days). The following applies: 24 days after treatment. On the procedure:
as §2, §4, §5
In the stage of weeds with 6˜8 leaves, the weeds were thinned out to maintain 3 weeds per pot and 30 weeds for each treatment, then continued to be cultured to Conyza Canadensis with a height of 10 cm, and treated.
as §8, §9, §10
(§12) Wherein, in the formula, X represented the fresh weight inhibition rate of the active ingredient A in a dosage of P, and Y represented the fresh weight inhibition rate of the active ingredient B in a dosage of Q.

A further test relates to Amaranthus retroflexus. The experiment in a line: Post-emergence foliage spray, pot culture, fresh weight inhibition (Tables 151-206; 20 days). As to the method: as §2, §4, §5
(§13) In the stage of weeds with 3˜4 leaves, the weeds were thinned out to maintain 15 weeds per pot and 45 weeds for each treatment, then continued to be cultured to 4˜5 leaves stage of grassy weeds, 5˜6 leaves stage of broadleaf weeds, and treated.
as §8, §9, §10, §12

A further test deals with Capsella bursa-pastoris. The description is as above. On the procedure: as §2, §4, §5, §13, §8, §9, §10, §12
[1] abbreviates: B alone 75 g a.i./ha, 20 days after treatment.
Where [2] appears, read: B alone 150 g a.i./ha, 20 days after treatment.
[3] abbreviates: B alone 300 g a.i./ha, 20 days after treatment.
The mark [4] stands for this setting: B alone 600 g a.i./ha, 20 days after treatment.

In the case of `CCn1ncc(C(=O)c2ccc(S(C)(=O)=O)c(COCC(F)(F)F)c2Cl)c1OC(=O)c1cn(C)nc1C` [fenpyrazone], the “Control effect (%) of B applied alone in corresponding dose” value (from here on “Control effect (%) of B applied alone”) with Eleusine indica (7.5 g a.i./ha) came out at 2.9%; with Eleusine indica (15 g a.i./ha), 10.9%; in the test with Eleusine indica (30 g a.i./ha) it was 38.6%; with Eleusine indica (60 g a.i./ha), 79.1%; in the test with Chloris virgata (B 7.5 g a.i./ha), 5.5%; in the test with Chloris virgata (B 15 g a.i./ha) it was 14.8%. The “Control effect (%) of B applied alone” value is 39.9% in the test with Chloris virgata (B 30 g a.i./ha) and 79.2% in the test on Chloris virgata (B 60 g a.i./ha).

As for `COc1c(Cl)ccc(-c2nc(C(=O)OCc3ccccc3)c(Cl)c(N)c2F)c1F` [florpyrauxifen benzyl], the “Control effect (%) of B applied alone” value in the test with Conyza Canadensis (B alone 1.875 g a.i./ha) is given as 3.5%; with Conyza Canadensis (B alone 7.5 g a.i./ha) it was 47.4%.

Regarding `Nc1c(Cl)c(F)nc(OCC(=O)O)c1Cl` [fluroxypyr], the “Control effect (%) of B applied alone” value in the test with Conyza Canadensis (B alone 37.5 g a.i./ha) is reported as 5.8%.

As for `CP(=O)(O)CCC(N)C(=O)O` (stereo not drawn) [glufosinate ammonium], the “Control effect (%) of B applied alone” value was found to be 10.2% with Amaranthus retroflexus (B 75 g a.i./ha, 20 days); 19.6% with Amaranthus retroflexus (B 150 g a.i./ha, 20 days); 28.6% in the test with Amaranthus retroflexus (B 300 g a.i./ha, 20 days); 54.1% with Amaranthus retroflexus (B 600 g a.i./ha, 20 days); 10.2% in the test on Amaranthus retroflexus (setting [1]); 19.6% with Amaranthus retroflexus (setting [2]). For the same compound, the “Control effect (%) of B applied alone” value in the test with Amaranthus retroflexus (setting [3]) is listed as 28.6%; with Amaranthus retroflexus (setting [4]), 54.1%; in the test on Capsella bursa-pastoris (B 75 g a.i./ha, 20 days) it was 2.1%; in the test with Capsella bursa-pastoris (B 150 g a.i./ha, 20 days) it was 8.7%; in the test on Capsella bursa-pastoris (B 300 g a.i./ha, 20 days), 15.3%; in the test with Capsella bursa-pastoris (B 600 g a.i./ha, 20 days) it was 34.5%. Besides, the “Control effect (%) of B applied alone” value with Capsella bursa-pastoris (setting [1]) is 2.1%; in the test with Capsella bursa-pastoris (setting [2]) it was 8.7%; in the test on Capsella bursa-pastoris (setting [3]), 15.3%; with Capsella bursa-pastoris (setting [4]), 34.5%.
